{"source": "patent US8084466B2", "about": "“Bicyclic heteroaryl-substituted imidazoles as modulators of the histamine H4 receptor” (Janssen Pharmaceutica NV, priority 2007, dated 2011)"}
{"biological_target": "T1, human histamine H4 receptor (Homo sapiens, UniProt Q9H3N8)", "T1 construct": "expressed in transfected cells; host or cells: SK-N-MC cells or COS7 cells, transient transfection with pH4R; cell membranes", "T1 sequence (Q9H3N8 whole entry)": "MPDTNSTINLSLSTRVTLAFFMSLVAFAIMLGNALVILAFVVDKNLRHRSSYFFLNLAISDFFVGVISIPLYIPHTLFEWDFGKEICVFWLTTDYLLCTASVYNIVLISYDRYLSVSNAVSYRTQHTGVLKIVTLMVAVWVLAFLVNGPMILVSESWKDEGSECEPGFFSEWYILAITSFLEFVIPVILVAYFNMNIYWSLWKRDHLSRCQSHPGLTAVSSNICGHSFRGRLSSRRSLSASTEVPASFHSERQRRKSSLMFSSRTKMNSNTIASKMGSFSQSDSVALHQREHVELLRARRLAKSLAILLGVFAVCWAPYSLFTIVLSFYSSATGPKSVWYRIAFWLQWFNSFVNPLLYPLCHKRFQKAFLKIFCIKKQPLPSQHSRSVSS", "assay": "Binding Assay on Recombinant Human Histamine H4 Receptor", "details": "competition binding with 3H-histamine (5 nM; KD 5 nM), membranes of SK-N-MC or COS7 cells expressing human H4 receptor; average of results; > = highest value tested", "how_it_was_run": "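Membranes from SK-N-MC or COS7 cells transiently transfected with H4R incubated 45 min at room temperature with ³H-histamine; nonspecific binding defined with 10,000 nM histamine. Filtration and scintillation counting. Ki from competition with 5 nM ³H-histamine, using a KD of 5 nM.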", "units": {"Ki": "nM"}}
{"smiles": "Cc1c(F)ccc2[nH]c(-c3cccc4c3ccn4CCCCC3CCNCC3)nc12", "note": "[Example 35, 5-Fluoro-4-methyl-2-[1-(4-piperidin-4-yl-butyl)-1H-indol-4-yl]-1H-benzoimidazole]", "Ki": 683}
{"smiles": "Cc1c(F)ccc2[nH]c(-c3ccc4c(c3Cl)CCN4CCCC3CCN(C)CC3)nc12", "note": "[Example 4, 2-{4-Chloro-1-[3-(1-methyl-piperidin-4-yl)-propyl]-2,3-dihydro-1H-indol-5-yl}-5-fluoro-4-methyl-1H-benzoimidazole]", "Ki": 34}
{"smiles": "Cc1nc2c(ccc3[nH]c(-c4ccc5c(c4C)CCN5CCCC4CCN(C)CC4)nc32)s1", "note": "[Example 60, 2-Methyl-7-{4-methyl-1-[3-(1-methyl-piperidin-4-yl)-propyl]-2,3-dihydro-1H-indol-5-yl}-6H-imidazo[4′,5′:3,4]benzo[2,1-d]thiazole]", "Ki": 91}
